Common to all, as to assay: Minimum Inhibitory Concentration (MIC) assay
What all share (assay type): cell-based

One experiment relates to Staphylococcus aureus. The conditions noted are these: LB broth, 37° C., 6 hours. How it is done: (§1) Inhibition of various bacteria by compounds 4 (n=9) and 6 (n=9) is described in Table 1. The biological data were determined by minimum Inhibitory Concentration (MIC) Assays. Each compound was added to 4 ml LB broth at a starting concentration of 200 μg/ml. Serial dilutions were then made, 1 in 2 at each step, ending with 0.2 μg/ml. 5 μL of a saturated culture was added to each serial dilution, and incubated at 37° C. with shaking for 6 hours. The MIC was then determined as the lowest concentration showing inhibited bacterial growth.

A further experiment relates to Mycobacterium smegmatis. The note with it: Mycolicibacterium smegmatis, LB broth, 37° C., 6 hours. How it is done:
as §1

A further experiment relates to Bacillus subtilis. The conditions noted are these: LB broth, 37° C., 6 hours. The method, then: as §1
Another experiment concerns Enterococcus faecalis. The conditions noted are these: LB broth, 37° C., 6 hours. How it is done: as §1

Values after ≈ are worked out from the molar mass of the structure shown.

The term MIC denotes the least concentration at which growth counts as inhibited. `CCCCCCCCCCS[C@@H]1O[C@@H]([C@H](O)CO)[C@H](O)[C@H]1O` [4 (n = 9), Decyl 1-thio-β-D-galactofuranoside]: the MIC with Staphylococcus aureus is < 0.2 µg/mL; against Mycobacterium smegmatis it was < 0.2 µg/mL; in the experiment on Bacillus subtilis, 25 µg/mL (≈ 74.3 µM); against Enterococcus faecalis it was > 200 µg/mL.

Regarding `CCCCCCCCCCC(CCCCCCCCCC)S[C@@H]1O[C@@H]([C@H](O)CO)[C@H](O)[C@H]1O` [6 (n = 9), 11-heneicosanyl 1-thio-β-D-galactofuranoside], the MIC in the experiment on Staphylococcus aureus is < 0.2 µg/mL; with Mycobacterium smegmatis, < 0.2 µg/mL; with Bacillus subtilis it was > 200 µg/mL; with Enterococcus faecalis, 200 µg/mL (≈ 408 µM).

The values above are taken from US20060014702A1, “Antimicrobial agent” (priority 2002, published 2006).
